Laboratory results as given in patent US8664406B2, “Fluorescent probe compounds, preparation method and use thereof” (Dalian University of Technology, priority 2009, dated 2014).

How the values were obtained:
Hela cells = conditions: 37° C., 30 min, RHg1 10 μM
Description: In order to investigate the ability of probe to track Hg^2+ in living cells, the following experiment is carried out. A neutral buffer containing the probe is added into cells, and then cells are incubated for 0.5 h in an incubator of 37° C. containing 5% CO2. The obtained cells are fully washed with the buffer or the culture medium and then imaged with fluorescent microscope to give a blank image. On the other hand, Hg(NO3)2 solution (final concentration is made to 10 μM) is added into the culture containing cells and the probe, and then cells are incubated for 0.5 h in an incubator of 37° C. containing 5% CO2. The obtained cells are washed with the culture medium and then imaged with fluorescent microscope to give an image showing intracellular distribution of Hg^2+, by which the information about the presence of Hg^2+ and regional distribution of Hg^2+ in cells is obtained.
The instrument is Nikon eclipase TE 2000-5.

[1] = RHg1 1 μM, sea water, Hg^2+ 1 to 5 ppb
Description: The application of the fluorescence probe of the present invention in sea water is described below. Namely, the probe is dissolved in an organic solvent or an organic solvent/water to form a probe solution. Some amount of the probe solution is added into the sea water sample containing Hg^2+ and the mixture is reacted for 10 to 30 min, and then fluorescence is detected.
The instrument is fluorospectrophotometer, model: LS 55.

[2] = RHg1 3 μM, L-cysteine 10 μM, Hg^2+ 1 μM
Description: The fluorescence of RHg1 (3 μM) was tested first, then the fluorescence of RHg1 after addition of L-cysteine (10 μM) or Hg^2+ (1 μM) was tested, and finally the fluorescence of the mixed solution containing RHg1, L-cysteine and Hg^2+ was tested. […] The instrument is Nikon eclipase TE 2000-5.

[3] = probe 5 μM, ethanol/water=1/1 v/v; for fluorescence and UV-Vis absorption enhancement induced by Hg^2+: Hg^2+ 15 equivalence; for selectivity to Hg^2+: metal ions 50 equivalence (Hg^2+ 15 equivalence), without the interference from Na^+, K^+, Ca^2+, Mg^2+, Cu^2+ and so on
Description: The synthesized compound RHg1 was adopted to test the selectivity to Hg^2+. RHg1 (5 μM) was added into ethanol aqueous solution (ethanol/water=1/1, v/v) containing metal ion (50 equivalence, except that Hg^2+ is 15 equivalence), and then the fluorescence spectrum was tested with excitation wavelength of 510 nm and emission wavelength of 580 nm, the result is shown in FIG. 1.
The synthesized compound RHg2 was adopted to test the selectivity to Hg^2+. RHg2 (5 μM) was added into ethanol aqueous solution (ethanol/water=1/1, v/v) containing metal ion (50 equivalence, except that Hg^2+ is 15 equivalence), and then the fluorescence spectrum was tested, the result is shown in FIG. 10.
The synthesized compound RHg3 was adopted to test the selectivity to Hg^2+. RHg3 (5 μM) was added into ethanol aqueous solution (ethanol/water=1/1, v/v) containing metal ion (50 equivalence, except that Hg^2+ is 15 equivalence), and then the fluorescence spectrum was tested, the result is shown in FIG. 11.
The synthesized compound RHg4 was adopted to test the selectivity to Hg^2+. RHg4 (5 μM) was added into ethanol aqueous solution (ethanol/water=1/1, v/v) containing metal ion (50 equivalence, except that Hg^2+ is 15 equivalence), and then the fluorescence spectrum was tested, the result is shown in FIG. 12.
The synthesized compound RHg5 was adopted to test the selectivity to Hg^2+. RHg5 (5 μM) was added into ethanol aqueous solution (ethanol/water=1/1, v/v) containing metal ion (50 equivalence, except that Hg^2+ is 15 equivalence), and then the fluorescence spectrum was tested, the result is shown in FIG. 13.
The synthesized compound RHg6 was adopted to test the selectivity to Hg^2+. RHg6 (5 μM) was added into ethanol aqueous solution (ethanol/water=1/1, v/v) containing metal ion (50 equivalence, except that Hg^2+ is 15 equivalence), and then the fluorescence spectrum was tested, the result is shown in FIG. 14.
The synthesized compound RHg7 was adopted to test the selectivity to Hg^2+. RHg7 (5 μM) was added into ethanol aqueous solution (ethanol/water=1/1, v/v) containing metal ion (50 equivalence, except that Hg^2+ is 15 equivalence), and then the fluorescence spectrum was tested, the result is shown in FIG. 15.
The synthesized compound RHg8 was adopted to test the selectivity to Hg^2+. RHg8 (5 μM) was added into ethanol aqueous solution (ethanol/water=1/1, v/v) containing metal ion (50 equivalence, except that Hg^2+ is 15 equivalence), and then the fluorescence spectrum was tested, the result is shown in FIG. 16.
The synthesized compound RHg9 was adopted to test the selectivity to Hg^2+. RHg9 (5 μM) was added into ethanol aqueous solution (ethanol/water=1/1, v/v) containing metal ion (50 equivalence, except that Hg^2+ is 15 equivalence), and then the fluorescence spectrum was tested, the result is shown in FIG. 17.
The synthesized compound RHg10 was adopted to test the selectivity to Hg^2+. RHg10 (5 μM) was added into ethanol aqueous solution (ethanol/water=1/1, v/v) containing metal ion (50 equivalence, except that Hg^2+ is 15 equivalence), and then the fluorescence spectrum was tested, the result is shown in FIG. 18.

[4] = pH range 4.9 to 7.7, aqueous solution, ionic strength 0.1
Description: The pHs of RHg1 aqueous solution and RHg1/Hg^2+ aqueous solution (ionic strength of 0.1, respectively) were adjusted to about 4.9, after measurement of fluorescence signal, a base solution was added slowly to adjust pH to 7.7, and the corresponding fluorescence signal change was measure, the results is shown in FIG. 3. […] The instrument is fluorospectrophotometer, model: LS 55.

Compound | fluorescence and UV-Vis absorption enhancement induced by Hg^2+ [3] | selectivity to Hg^2+ [3] | other results
CCN(CC)c1ccc2c(c1)Oc1cc(N(CC)CC)ccc1C21c2ccccc2C(=O)N1/N=C/C=N/c1ccccc1O [RHg1] | large fluorescence and UV-Vis absorption enhancement | good selectivity | fluorescence in living Hela cells without Hg^2+ (Hela cells): very weak; fluorescence in living Hela cells with Hg^2+ added (Hela cells; Hg^2+ 10 μM): very strong; relationship between fluorescence intensity and Hg^2+ concentration [1]: good linear relationship; effect of L-cysteine on Hg^2+ detection [2]: little effects; effect of pH change on fluorescence emission [4]: nearly not effected
CCN(CC)c1ccc2c(c1)Oc1cc(N(CC)CC)ccc1C21c2ccccc2C(=O)N1/N=C/C=N/c1ccccc1C [RHg2] | large fluorescence and UV-Vis absorption enhancement | good selectivity | 
CCN(CC)c1ccc2c(c1)Oc1cc(N(CC)CC)ccc1C21c2ccccc2C(=O)N1/N=C/C=N/c1ccccc1 [RHg3] | large fluorescence and UV-Vis absorption enhancement | good selectivity | 
CCN(CC)c1cc2c(cc1C)C1(c3ccc(N)cc3O2)c2ccccc2C(=O)N1/N=C/C=N/c1ccccc1 (stereo not shown) [RHg7] | large fluorescence and UV-Vis absorption enhancement | good selectivity | 
CCN(CC)c1cc2c(cc1C)C1(c3ccc(N)cc3O2)c2ccccc2C(=O)N1/N=C/C=N/c1ccc(C#N)cc1 (stereo not shown) [RHg8] | large fluorescence and UV-Vis absorption enhancement | good selectivity | 
CCN(CC)c1cc2c(cc1C)C1(c3ccc(N)cc3O2)c2ccccc2C(=O)N1/N=C/C=N/c1ccc(NC(C)=O)cc1 (stereo not shown) [RHg9] | large fluorescence and UV-Vis absorption enhancement | good selectivity | 
CCN(CC)c1cc2c(cc1C)C1(c3ccc(N)cc3O2)c2ccccc2C(=O)N1/N=C/C=N/c1ccc(Nc2ccccc2)cc1 (stereo not shown) [RHg10] | large fluorescence and UV-Vis absorption enhancement | good selectivity | 
CCN(CC)c1cc2c(cc1C)C1(c3ccc(N)cc3O2)c2ccccc2C(=O)N1/N=C/C=N/c1ccc(C(C)=O)cc1 (stereo not shown) [RHg11] | large fluorescence and UV-Vis absorption enhancement | good selectivity | 
CCNc1cc2c(cc1C)C1(c3cc(C)c(NCC)cc3O2)c2ccccc2C(=O)N1/N=C/C=N/c1ccc(OC)cc1 [RHg13] | large fluorescence and UV-Vis absorption enhancement | good selectivity | 
CCNc1cc2c(cc1C)C1(c3cc(C)c(NCC)cc3O2)c2ccccc2C(=O)N1/N=C/C=N/c1ccc(CCl)cc1 [RHg14] | large fluorescence and UV-Vis absorption enhancement | good selectivity | 
CCNc1cc2c(cc1C)C1(c3cc(C)c(NCC)cc3O2)c2ccccc2C(=O)N1/N=C/C=N/c1ccc(C(=O)O)cc1 [RHg15] | large fluorescence and UV-Vis absorption enhancement | good selectivity | 
CCNc1cc2c(cc1C)C1(c3cc(C)c(NCC)cc3O2)c2ccccc2C(=O)N1/N=C/C=N/c1ccc(Nc2ccccc2)cc1 [RHg17] | large fluorescence and UV-Vis absorption enhancement | good selectivity | 
CCN(CC)c1ccc2c(c1)Oc1cc(N)ccc1C21c2ccccc2C(=O)N1/N=C/C=N/c1ccc(Br)cc1 (stereo not shown) [RHg18] | large fluorescence and UV-Vis absorption enhancement | good selectivity | 
CCN(CC)c1ccc2c(c1)Oc1cc(N)ccc1C21c2ccccc2C(=O)N1/N=C/C=N/c1ccc(OC)cc1 (stereo not shown) [RHg19] | large fluorescence and UV-Vis absorption enhancement | good selectivity | 
CCN(CC)c1ccc2c(c1)Oc1cc(N)ccc1C21c2ccccc2C(=O)N1/N=C/C=N/c1ccc(OCCOCCO)cc1 (stereo not shown) [RHg20] | large fluorescence and UV-Vis absorption enhancement | good selectivity | 
Nc1ccc2c(c1)Oc1cc(N)ccc1C21c2ccccc2C(=O)N1/N=C/C=N/c1ccc(OCCOCCO)cc1 [RHg22] | large fluorescence and UV-Vis absorption enhancement | good selectivity | 
Nc1ccc2c(c1)Oc1cc(N)ccc1C21c2ccccc2C(=O)N1/N=C/C=N/c1ccc(C(=O)O)cc1 [RHg23] | large fluorescence and UV-Vis absorption enhancement | good selectivity | 
Nc1ccc2c(c1)Oc1cc(N)ccc1C21c2ccccc2C(=O)N1/N=C/C=N/c1ccc(Nc2ccccc2)cc1 [RHg24] | large fluorescence and UV-Vis absorption enhancement | good selectivity | 
Cc1c(/N=C/C=N/N2C(=O)c3ccccc3C23c2ccc(N)cc2Oc2cc(N)ccc23)cccc1C(F)(F)F [RHg25] | large fluorescence and UV-Vis absorption enhancement | good selectivity | 
